Laboratory results: US20260027116A1, “Methods of Treating Chronic Graft-Versus-Host Disease Following Allogeneic Hematopoietic Stem Cell Transplantation” (Kadmon Corporation, LLC, priority 2022, published 2026)
Like-named read-outs stand apart in the source and are kept apart here.

Test system: patients with chronic GVHD
Settings: for Abdominal pain / Arthralgia / Cough / Decreased appetite / Diarrhea / Dysphagia / Dyspnea / Edema / Headache / Hemorrhage / Hypertension / Infection (pathogen not specified) / Muscle spasm / Musculoskeletal pain / Nasal congestion / Pruritus / Pyrexia / Rash / Viral infection / Asthenia / Nausea: 200 mg once daily (N = 83); for Asthenia: includes fatigue, malaise; for Nausea: includes nausea, vomiting
[1] = Grade 2-4 Max Post, 200 mg once daily
[2] = Grade 3-4 Max Post, 200 mg once daily

Question: `CC(C)NC(=O)COc1cccc(-c2nc(Nc3ccc4[nH]ncc4c3)c3ccccc3n2)c1` [Belumosudil, 2-{3-[4-(1H-indazol-5-ylamino)-2-quinazolinyl]phenoxy}-N-(propan-2-yl) acetamide] was tested. Which “adverse reactions leading to dose interruption” value (200 mg once daily, N=83) did it give?
Answer: The value was 29%.

Question: And the “dose interruption due to asthenia, dyspnea, hemorrhage, hypotension, liver function test abnormal, nausea, pyrexia, edema, renal failure (each)” value (200 mg once daily, N=83)?
Answer: Its value is 2%.

Question: And the “dose interruption due to diarrhea” value (200 mg once daily, N=83)?
Answer: The value was 4%.

Question: What about the “dose interruption due to infections” value (200 mg once daily, N=83) of the same compound?
Answer: Its value is 11%.

Question: What about the “patients with fatal adverse reaction” value (200 mg once daily, N=83) of the same compound?
Answer: Its value is “one”.

Question: What about the “permanent discontinuation due to adverse reactions” value (200 mg once daily, N=83) of the same compound?
Answer: Its value is 18%.

Question: What about the “permanent discontinuation due to nausea” value (200 mg once daily, N=83) of the same compound?
Answer: Its value is 4%.

Question: And the Abdominal pain (All Grades)?
Answer: Its Abdominal pain is 22%.

Question: What about the Arthralgia (All Grades) of the same compound?
Answer: Its Arthralgia is 15%.

Question: What about the Cough (All Grades) of the same compound?
Answer: The Cough was 30%.

Question: And the Decreased appetite (All Grades)?
Answer: The Decreased appetite was 17%.

Question: And the Diarrhea (All Grades)?
Answer: The Diarrhea was 35%.

Question: And the Dysphagia (All Grades)?
Answer: Its Dysphagia is 16%.

Question: What about the Dyspnea (All Grades) of the same compound?
Answer: The Dyspnea was 33%.

Question: What about the Edema (All Grades) of the same compound?
Answer: Its Edema is 27%.

Question: What about the Headache (All Grades) of the same compound?
Answer: Its Headache is 21%.

Question: And the Hemorrhage (All Grades)?
Answer: Its Hemorrhage is 23%.

Question: What about the Hypertension (All Grades) of the same compound?
Answer: The Hypertension was 21%.

Question: And the “Infection (pathogen not specified)” value (All Grades)?
Answer: Its value is 53%.

Question: And the Muscle spasm (All Grades)?
Answer: The Muscle spasm was 17%.

Question: And the Musculoskeletal pain (All Grades)?
Answer: Its Musculoskeletal pain is 22%.

Question: What about the Nasal congestion (All Grades) of the same compound?
Answer: Its Nasal congestion is 12%.

Question: What about the Pruritus (All Grades) of the same compound?
Answer: The Pruritus was 11%.

Question: What about the Pyrexia (All Grades) of the same compound?
Answer: The Pyrexia was 18%.

Question: What about the Rash (All Grades) of the same compound?
Answer: Its Rash is 12%.

Question: And the Viral infection (All Grades)?
Answer: Its Viral infection is 19%.

Question: What about the Asthenia (All Grades) of the same compound?
Answer: Its Asthenia is 46%.

Question: What about the Nausea (All Grades) of the same compound?
Answer: The Nausea was 42%.

Question: And the “Alanine Aminotransferase Increased” value [1]?
Answer: Its value is 7%.

Question: What about the “Alkaline Phosphatase Increased” value [1] of the same compound?
Answer: Its value is 9%.

Question: And the “Calcium Decreased” value [1]?
Answer: The value was 12%.

Question: What about the “Creatinine Increased” value [1] of the same compound?
Answer: The value was 4%.

Question: And the “Gamma Glutamyl Transferase Increased” value [1]?
Answer: The value was 21%.

Question: What about the “Hemoglobin Decreased” value [1] of the same compound?
Answer: Its value is 11%.

Question: What about the “Lymphocytes Decreased” value [1] of the same compound?
Answer: Its value is 29%.

Question: What about the “Neutrophil Count Decreased” value [1] of the same compound?
Answer: The value was 8%.

Question: What about the “Phosphate Decreased” value [1] of the same compound?
Answer: Its value is 28%.

Question: And the “Platelets Decreased” value [1]?
Answer: The value was 10%.

Question: What about the “Potassium Increased” value [1] of the same compound?
Answer: Its value is 7%.

Question: What about the “Alanine Aminotransferase Increased” value [2] of the same compound?
Answer: Its value is 2%.

Question: What about the “Alkaline Phosphatase Increased” value [2] of the same compound?
Answer: The value was 0%.

Question: And the “Calcium Decreased” value [2]?
Answer: The value was 1%.

Question: And the “Creatinine Increased” value [2]?
Answer: Its value is 0%.

Question: What about the “Gamma Glutamyl Transferase Increased” value [2] of the same compound?
Answer: Its value is 11%.

Question: What about the “Hemoglobin Decreased” value [2] of the same compound?
Answer: The value was 1%.

Question: What about the “Lymphocytes Decreased” value [2] of the same compound?
Answer: The value was 13%.

Question: What about the “Neutrophil Count Decreased” value [2] of the same compound?
Answer: Its value is 4%.

Question: What about the “Phosphate Decreased” value [2] of the same compound?
Answer: The value was 7%.

Question: And the “Platelets Decreased” value [2]?
Answer: Its value is 5%.

Question: What about the “Potassium Increased” value [2] of the same compound?
Answer: The value was 1%.

Question: What about the Abdominal pain (Grades 3-4) of the same compound?
Answer: Its Abdominal pain is 1%.

Question: What about the Arthralgia (Grades 3-4) of the same compound?
Answer: The Arthralgia was 2%.

Question: What about the Cough (Grades 3-4) of the same compound?
Answer: Its Cough is 0%.

Question: What about the Decreased appetite (Grades 3-4) of the same compound?
Answer: Its Decreased appetite is 1%.

Question: What about the Diarrhea (Grades 3-4) of the same compound?
Answer: Its Diarrhea is 5%.

Question: What about the Dysphagia (Grades 3-4) of the same compound?
Answer: The Dysphagia was 0%.

Question: And the Dyspnea (Grades 3-4)?
Answer: Its Dyspnea is 5%.

Question: What about the Edema (Grades 3-4) of the same compound?
Answer: Its Edema is 1%.

Question: What about the Headache (Grades 3-4) of the same compound?
Answer: The Headache was 0%.

Question: And the Hemorrhage (Grades 3-4)?
Answer: Its Hemorrhage is 5%.

Question: What about the Hypertension (Grades 3-4) of the same compound?
Answer: Its Hypertension is 7%.

Question: And the “Infection (pathogen not specified)” value (Grades 3-4)?
Answer: The value was 16%.

Question: What about the Muscle spasm (Grades 3-4) of the same compound?
Answer: Its Muscle spasm is 0%.

Question: And the Musculoskeletal pain (Grades 3-4)?
Answer: The Musculoskeletal pain was 4%.

Question: What about the Nasal congestion (Grades 3-4) of the same compound?
Answer: The Nasal congestion was 0%.

Question: What about the Pruritus (Grades 3-4) of the same compound?
Answer: The Pruritus was 0%.

Question: What about the Pyrexia (Grades 3-4) of the same compound?
Answer: The Pyrexia was 1%.

Question: And the Rash (Grades 3-4)?
Answer: The Rash was 0%.

Question: What about the Viral infection (Grades 3-4) of the same compound?
Answer: The Viral infection was 4%.

Question: What about the Asthenia (Grades 3-4) of the same compound?
Answer: Its Asthenia is 4%.

Question: And the Nausea (Grades 3-4)?
Answer: The Nausea was 4%.
